# In ChEMBL document CHEMBL1201862, “PubChem BioAssay data set” (2004):
# Calls of active or inactive are those of the source.
# What was measured:
# Streptococcus = assay: GAS UMAA2166 growth inhibition – luminescence, BacTiterGlo, counter-screen for streptokinase expression inhibitor project, dose response (AID 1915); format: functional, organism-based;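 note: potency for reduction of bacterial viability or growth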
# [1] = test system: Streptococcus sp. 'group A'; assay: Streptococcus pyogenes SK(-)GAS viability under kanamycin – luminescence, BacTiterGlo, confirmation, counter-screen for streptokinase expression inhibitor project, dose response (AID 1900); format: functional, organism-based
# Streptokinase A = target: T1, Streptokinase A (Streptococcus pyogenes serotype M1, UniProt P10520); assay: viability-normalized secreted streptokinase activity reduction – plasminogen activation absorbance, OD405, dose response (AID 1914); format: functional, Streptococcus pyogenes M1 GAS;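 note: secreted streptokinase activity via plasminogen activation per viability signal from cell pellet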
# T1 sequence (P10520 whole entry): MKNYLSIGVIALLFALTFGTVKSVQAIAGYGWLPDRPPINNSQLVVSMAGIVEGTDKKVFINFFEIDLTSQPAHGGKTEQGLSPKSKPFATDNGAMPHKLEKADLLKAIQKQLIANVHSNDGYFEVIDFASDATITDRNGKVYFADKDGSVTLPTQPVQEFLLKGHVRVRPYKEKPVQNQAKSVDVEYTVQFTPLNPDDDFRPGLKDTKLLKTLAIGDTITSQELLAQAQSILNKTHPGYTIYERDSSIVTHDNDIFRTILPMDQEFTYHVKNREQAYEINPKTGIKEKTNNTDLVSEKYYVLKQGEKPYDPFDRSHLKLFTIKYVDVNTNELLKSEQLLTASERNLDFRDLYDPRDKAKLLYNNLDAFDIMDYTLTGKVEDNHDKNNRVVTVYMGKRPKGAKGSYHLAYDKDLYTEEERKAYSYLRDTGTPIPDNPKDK
# Cytochrome P450 2C19 = Cytochrome P450 2C19 (Homo sapiens, UniProt P33261); assay: Cytochrome panel assay with activity outcomes. Panel member name: p450-cyp2c19 Compounds with AC50 equal or less than 10 uM are considered active; format: functional
# Cytochrome P450 2C19, sequence (P33261 whole entry): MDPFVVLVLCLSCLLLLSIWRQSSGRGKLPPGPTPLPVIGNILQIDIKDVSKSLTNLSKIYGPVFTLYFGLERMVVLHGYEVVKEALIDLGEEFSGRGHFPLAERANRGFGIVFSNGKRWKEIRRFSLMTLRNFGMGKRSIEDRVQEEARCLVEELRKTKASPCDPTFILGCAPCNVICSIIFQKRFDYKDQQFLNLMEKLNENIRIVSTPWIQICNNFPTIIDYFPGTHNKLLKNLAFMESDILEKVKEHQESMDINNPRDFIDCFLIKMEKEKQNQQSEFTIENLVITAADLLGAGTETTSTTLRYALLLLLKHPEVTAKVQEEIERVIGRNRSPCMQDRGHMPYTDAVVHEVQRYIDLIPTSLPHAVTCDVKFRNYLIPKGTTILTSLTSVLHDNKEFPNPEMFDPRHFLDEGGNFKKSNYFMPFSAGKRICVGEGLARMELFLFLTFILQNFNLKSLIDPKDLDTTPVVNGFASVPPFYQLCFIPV
# Cytochrome P450 2D6 = Cytochrome P450 2D6 (Homo sapiens, UniProt P10635);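 note: CYP2D6 member of a cytochrome P450 panel assay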
# Cytochrome P450 2D6, sequence (P10635 whole entry): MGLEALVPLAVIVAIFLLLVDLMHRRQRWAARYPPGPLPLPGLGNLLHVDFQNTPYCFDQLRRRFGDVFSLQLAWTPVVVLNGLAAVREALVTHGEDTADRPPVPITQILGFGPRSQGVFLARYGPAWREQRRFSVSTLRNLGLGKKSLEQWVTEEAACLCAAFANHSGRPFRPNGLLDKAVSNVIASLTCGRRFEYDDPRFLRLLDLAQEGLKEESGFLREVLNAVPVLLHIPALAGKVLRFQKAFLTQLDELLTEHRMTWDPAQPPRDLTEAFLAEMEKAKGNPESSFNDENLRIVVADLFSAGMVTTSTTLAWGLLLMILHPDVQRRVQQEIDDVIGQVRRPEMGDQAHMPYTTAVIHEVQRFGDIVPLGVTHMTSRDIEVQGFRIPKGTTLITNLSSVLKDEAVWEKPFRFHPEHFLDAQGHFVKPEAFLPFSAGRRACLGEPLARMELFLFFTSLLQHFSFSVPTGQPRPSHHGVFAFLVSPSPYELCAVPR
# [2] = NIH3T3 cell viability loss – ATP luminescence, mouse fibroblasts, counter-screen, dose response (AID 2010); format: functional, cell-based;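 note: cells exposed to compound for about 90 hours before reading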
# [3] = Trypanosoma cruzi growth suppression in host cells – NIH3T3 host cells, beta-gal luminescence, confirmation (AID 2044); format: functional, cell-based;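 note: intracellular parasites grown in NIH/3T3 mouse fibroblasts as host cells; luminescent beta-galactosidase reporter signal from transgenic T. cruzi replicating inside host cells; inhibitors lower the luminescence signal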
# [4] = target: T2, Corticotropin-releasing factor receptor 2/Corticotropin-releasing factor-binding protein (Homo sapiens, UniProt P24387+Q13324); assay: activators of CRF receptor 2 with binding protein – uHTS hits, confirmation (AID 602473); format: functional; details: read-out: EC50_Mean
# T2 sequence (Q13324 whole entry): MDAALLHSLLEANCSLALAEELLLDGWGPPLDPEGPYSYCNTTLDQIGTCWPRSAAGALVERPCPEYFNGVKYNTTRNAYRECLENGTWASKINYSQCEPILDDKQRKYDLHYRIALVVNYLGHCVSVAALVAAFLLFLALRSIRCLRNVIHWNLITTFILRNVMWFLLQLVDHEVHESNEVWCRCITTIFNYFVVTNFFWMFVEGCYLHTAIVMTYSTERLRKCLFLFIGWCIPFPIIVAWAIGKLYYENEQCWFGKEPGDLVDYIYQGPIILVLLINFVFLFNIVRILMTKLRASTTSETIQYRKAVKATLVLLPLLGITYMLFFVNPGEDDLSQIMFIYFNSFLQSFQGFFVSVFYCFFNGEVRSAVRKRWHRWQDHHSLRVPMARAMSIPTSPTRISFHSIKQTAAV
# T2 sequence (P24387 whole entry): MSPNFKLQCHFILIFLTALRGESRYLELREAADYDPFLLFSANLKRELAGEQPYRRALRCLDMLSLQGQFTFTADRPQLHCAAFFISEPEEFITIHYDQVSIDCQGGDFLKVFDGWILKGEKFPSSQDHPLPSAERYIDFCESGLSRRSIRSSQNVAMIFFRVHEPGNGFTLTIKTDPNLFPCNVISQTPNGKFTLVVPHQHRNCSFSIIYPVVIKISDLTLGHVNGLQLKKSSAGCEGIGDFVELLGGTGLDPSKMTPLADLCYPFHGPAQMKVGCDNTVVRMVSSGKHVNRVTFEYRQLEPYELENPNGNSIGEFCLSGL
# [5] = target: T2, Corticotropin-releasing factor receptor 2/Corticotropin-releasing factor-binding protein; assay: Dose Response confirmation of uHTS hits for small molecule antagonists of the CRF-binding protein and CRF-R2 receptor complex.; format: functional; details: read-out: IC50_Mean
smiles,measurement,setting,value
COc1ccccc1NC(=O)C(=O)NNC(=O)COc1ccc2ccccc2c1,EC50,Streptococcus,17.7 µM (active)
same,EC50,[1],4.14 µM (active)
same,EC50,Streptokinase A,> 150 µM (not active)
O=C(O)Cc1ccc2ocnc2c1,AC50,Cytochrome P450 2C19,inconclusive
O=c1c2ccccc2c(-c2ccccc2)nn1-c1ccc(Cl)c(Cl)c1,AC50,Cytochrome P450 2D6,10 µM (inconclusive)
Cc1cc(C)c2nc(N3C(=O)C(O)=C(C(=O)c4ccco4)C3c3ccco3)sc2c1 (centres undefined),EC50,Streptococcus,5.86 µM (active)
same,EC50,[1],2.52 µM (active)
Cc1cccc(CNc2ncncc2-c2cccnc2)c1,AC50,Cytochrome P450 2D6,25.1 µM (inconclusive)
O=C(Nc1cccc(F)c1)NC1CCN(Cc2ccccc2)CC1,EC50,[2],> 60 µM (not active)
same,EC50,[3],0.736 µM (active)
Cc1ccc2cc3cc(C(=O)N(CC(=O)NC4CCCC4)c4cccc(C)c4C)sc3nc2c1,EC50,[2],> 30 µM (not active)
same,EC50,[3],1.61 µM (active)
Cc1cc(=O)oc(C)c1C(=O)NCc1ccccn1,AC50,Cytochrome P450 2C19,inconclusive
CC(=O)N(CCCN(C)C)c1nc2ccc(C)cc2s1,EC50,[2],> 60 µM (not active)
same,EC50,[3],0.236 µM (active)
CC(=O)Oc1ccccc1C1=NN(C(=O)/C=C/c2ccccc2)C(c2ccccc2)C1 (centres undefined),EC50,Streptococcus,> 150 µM (not active)
same,EC50,[1],17.1 µM (active)
same,EC50,Streptokinase A,> 150 µM (not active)
Cc1ccc(S(=O)(=O)Nc2cc(O)nc3c2CCC3)cc1,AC50,Cytochrome P450 2D6,2.51 µM (inconclusive)
CC(C)CN(CC(C)C)S(=O)(=O)N1CCC(C(=O)NCc2ccc(F)cc2)CC1,AC50,Cytochrome P450 2C19; read-out: AC50,25.1 µM (inconclusive)
c1ccc(Oc2nc(-c3ccccn3)nc3ccccc23)cc1,EC50,[2],> 60 µM (not active)
same,EC50,[3],3.8 µM (active)
same,EC50,Streptococcus,22.5 µM (active)
same,EC50,[1],44.1 µM (active)
same,EC50,Streptokinase A,> 150 µM (not active)
CC1CCN(C(=O)c2ccc3c(c2)NC(=O)/C(=C/c2ccccc2)S3)CC1,EC50,Streptococcus,6.87 µM (active)
same,EC50,[1],2.64 µM (active)
same,EC50,Streptokinase A,> 150 µM (not active)
CCC(C)(C)n1nnnc1C(c1cccs1)N1CCN(c2nc3ccccc3s2)CC1 (centres undefined),EC50,[2],8.58 µM (active)
same,EC50,[3],1.96 µM (active)
O=C(O)c1ccc(N=Nc2c(O)[nH]c3ccc(Br)cc23)cc1,EC50,Streptococcus,8.12 µM (active)
same,EC50,[1],4.19 µM (active)
CC(=O)NC(=S)Nc1ccc(S(=O)(=O)N(C)Cc2ccccc2)cc1,EC50,[2],> 30 µM (not active)
same,EC50,[3],1.22 µM (active)
Cc1cc2nc(/C(C#N)=C\c3ccc(-c4ccccc4C(=O)O)o3)[nH]c2cc1C,EC50,[4],5.8 µM (active)
Clc1ccc(-c2[nH]nc3c2CCC3)cc1Cl,EC50,Streptococcus,13.9 µM (active)
same,EC50,[1],8.42 µM (active)
same,EC50,Streptokinase A,> 150 µM (not active)
Cc1cc(C)c2c(n1)sc1c(=O)n(CC(=O)c3ccccc3)cnc12,EC50,Streptococcus,5.59 µM (active)
same,EC50,[1],0.95 µM (active)
same,EC50,Streptokinase A,> 150 µM (not active)
CCOC(=O)c1ccc(-c2ccc3c(=O)c4ccccc4n(C)c3c2)cc1F,EC50,Streptococcus,> 150 µM (not active)
same,EC50,[1],3.46 µM (active)
same,EC50,Streptokinase A,> 150 µM (not active)
Cc1cc2c(n1-c1ccc(Br)cc1)CC(C)(C)CC2=O,EC50,[2],> 60 µM (not active)
same,EC50,[3],2.05 µM (active)
COc1ccccc1CNc1nc(-c2ccoc2)nc2ccccc12,AC50,Cytochrome P450 2D6,6.31 µM (active)
COc1ccc(CN2CCCC(C(=O)c3ccc(Cl)cc3)C2)cc1Cn1cncn1 (centres undefined),EC50,[2],> 30 µM (not active)
same,EC50,[3],0.508 µM (active)
O=C(Nc1ccn(Cc2c(F)c(F)cc(F)c2F)n1)c1ccc(COc2ccccc2Cl)cc1,EC50,[2],> 60 µM (inconclusive)
same,EC50,[3],0.867 µM (active)
CN(CC(=O)Nc1ccc(S(=O)(=O)N2CCCC2)cc1)Cc1ccc(Cl)c(Cl)c1,EC50,[2],> 60 µM (not active)
same,EC50,[3],2.04 µM (active)
Cc1ccc(OCc2ccc(C(=O)Nc3c(C)nn(Cc4c(F)c(F)c(F)c(F)c4F)c3C)o2)c([N+](=O)[O-])c1,EC50,Streptococcus,> 150 µM (not active)
same,EC50,[1],25.3 µM (active)
same,EC50,Streptokinase A,25.6 µM (inconclusive)
O=C(NCc1ccccn1)Nc1ccc(F)c(Cl)c1,EC50,Streptococcus,> 150 µM (not active)
same,EC50,[1],> 150 µM (not active)
same,EC50,Streptokinase A,> 150 µM (not active)
COc1ccc(-n2nc(C)c3c(O)c4c(nc32)CCCC4)cc1,EC50,[2],> 60 µM (not active)
same,EC50,[3],0.21 µM (active)
CN1CCN(c2ccc(S(=O)(=O)N3CCCCC3)cc2NC(=O)COc2ccc(F)cc2)CC1,EC50,[2],> 60 µM (not active)
same,EC50,[3],0.538 µM (active)
CC(CCc1ccccc1)NC(=O)c1ccc(NC(=O)c2cccc(Br)c2)cc1 (centres undefined),EC50,[2],> 60 µM (not active)
same,EC50,[3],2.02 µM (active)
Cc1ccc(-c2cc(C(F)F)nc(N3CCC(C)CC3)n2)cc1,EC50,Streptococcus,10 µM (active)
same,EC50,[1],6.63 µM (active)
same,EC50,Streptokinase A,> 150 µM (not active)
O=C(COc1ccccc1C(=O)NCc1ccncc1)Nc1ccc(Br)cc1,EC50,[2],> 60 µM (not active)
same,EC50,[3],2.15 µM (active)
CCC(=O)Nc1ccc(-c2nnc(-c3ccccc3)o2)cc1,EC50,[2],> 60 µM (not active)
same,EC50,[3],1.55 µM (active)
CN(CC1CCCO1)S(=O)(=O)c1ccc(C(=O)Nc2nnc(-c3ccccc3)o2)cc1 (centres undefined),EC50,Streptococcus,12.2 µM (active)
same,EC50,[1],4.14 µM (active)
Cc1cnc(CNc2ncnc3ccc(-c4ccc5c(c4)OCO5)cc23)cn1,AC50,Cytochrome P450 2C19; read-out: AC50,15.8 µM (inconclusive)
COc1ncc2nc(C)c(=O)n(Cc3cccs3)c2n1,AC50,Cytochrome P450 2D6,25.1 µM (inconclusive)
CCC(C)Sc1cc(-c2nc3ccc(C)cn3c2NCc2ccccc2)ccc1OC (centres undefined),EC50,Streptococcus,9.32 µM (active)
same,EC50,[1],2.32 µM (active)
same,EC50,Streptokinase A,2.75 µM (active)
OCC1(Cc2ccc(Cl)cc2)CCN(Cc2ccc(Oc3ncccn3)cc2)CC1,EC50,[2],> 60 µM (inconclusive)
same,EC50,[3],0.966 µM (active)
CN(C)CCCNc1oc(-c2ccccc2Cl)nc1S(=O)(=O)c1ccc(F)cc1,EC50,[2],24.1 µM (active)
same,EC50,[3],0.135 µM (active)
c1ccc(Cc2noc(CN3CCN(CCOc4ccccc4)CC3)n2)cc1,EC50,[2],> 60 µM (not active)
same,EC50,[3],1.09 µM (active)
Cc1ccc([N+](=O)[O-])cc1NC(=O)CN(C1CCCCC1)S(=O)(=O)c1ccc(Cl)cc1,EC50,[2],> 60 µM (not active)
same,EC50,[3],3.08 µM (active)
O=C(NCc1ccc(OC(F)(F)F)cc1)c1cccc2c1C(=O)c1ccc(N3CCCC3)cc1S2(=O)=O,EC50,[4],11.8 µM (active)
CC(Oc1ccc(Cl)cc1)C(=O)Nc1ccccc1N1CCOCC1 (centres undefined),EC50,[4],7.37 µM (active)
CC(=O)N(CC(=O)O)c1ccccc1C(=O)O,AC50,Cytochrome P450 2C19; read-out: AC50,0.0562 µM (inconclusive)
O=C1C=C(NCCN2CCOCC2)CC(c2ccccc2)C1 (centres undefined),AC50,Cytochrome P450 2C19; read-out: AC50,39.8 µM (inconclusive)
Cc1occc1C(=O)NNC(=O)c1ccc(F)cc1,AC50,Cytochrome P450 2C19,inconclusive
CC(=O)Oc1ccc2cc(-c3cccnc3)c(=O)oc2c1,EC50,[4],> 53 µM (inactive)
same,IC50,[5],> 47.1 µM (inactive)
COc1cccc(N2CCN(S(=O)(=O)c3c(C)[nH]c(C)c3C(=O)N3CCCC3)CC2)c1,EC50,[4],> 53 µM (inactive)
same,IC50,[5],> 47.1 µM (inactive)
COc1ccccc1N(CC(=O)N1CCCCC1C)S(=O)(=O)c1ccc(Cl)cc1 (centres undefined),EC50,[4],5.95 µM (active)
CCn1c2ccccc2c2cc(NC(=O)C/C(C)=N/NC(=O)c3ccccc3N)ccc21,AC50,Cytochrome P450 2D6,25.1 µM (inconclusive)
CNc1nc(N(C)C)nc(N(C)C)n1 [PENTAMETHYL MELAMINE],EC50,[4],> 53 µM (inactive)
